# Several values for one entry are separate records, joined by “and”; a condition that tells them apart may be missing. Equal values may be shown once. Read-outs that look alike come from different tables or passages of the source.
# Tests used:
# [1] = system: IL-1β production in rat primary astrocytes; assay: LPS-induced IL-1β production (ELISA) in rat primary astrocytes; type: cell-based
# Experimental: Determination of TNF-α and IL-1β in culture supernatants Cells were stimulated with LPS in serum-free media for 24 h in the presence or absence of forskolin or rolipram, and concentrations of TNF-α and IL-1β were measured in culture supernatants by using high-sensitivity enzyme-linked immunosorbent assay (R&D Systems, USA) according to the manufacturer's instructions.
# [2] = system: IL-6 production in rat macrophages; assay: LPS-induced IL-6 production (ELISA) in rat macrophages; type: cell-based
# [3] = system: TNF-α production in rat resident macrophages; assay: LPS-/IFN-γ-induced TNF-α production (ELISA) in rat macrophages; type: cell-based
# [4] = system: IL-1β production in rat macrophages; assay: LPS-induced IL-1β production (ELISA) in rat macrophages; type: cell-based
# [5] = system: control human skin fibroblasts; assay: β-oxidation of lignoceric acid in control human skin fibroblasts; type: cell-based
# [6] = system: cultured skin fibroblasts of X-ALD; assay: VLCFA ratios (C26:0/C22:0, C24:0/C22:0) in X-ALD skin fibroblasts; type: cell-based, human; set-up: C24:0/C22:0: concentration or dose not given beside the values
# [7] = system: IL-6 production in rat primary microglia; assay: LPS-induced IL-6 production (ELISA) in rat primary microglia; type: cell-based
# iNOS [8] = assay: Expression of iNOS protein (immunoblot) and mRNA (Northern) in rat primary astrocytes; type: cell-based
# Method in brief: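 Cells incubated 24 h with or without stimuli (cytokines or LPS). iNOS protein detected by immunoblot with anti-mouse macrophage iNOS antibody and [^125I]-protein A. Northern blot: 20 μg total RNA hybridised at 68° C with ^32P-cDNA probe; iNOS mRNA quantified densitometrically relative to GAPDH rehybridisation.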
# [9] = system: NO production in rat primary microglia; assay: LPS-induced NO production (nitrite) in rat primary microglia; type: cell-based
# [10] = system: IL-6 production in rat primary astrocytes; assay: LPS-induced IL-6 production (ELISA) in rat primary astrocytes; type: cell-based
# TNF-α = type: in vivo, Lewis rats
# Experimental: (§1) One group of animals induced for EAE was left untreated while another group of animals was not induced for EAE and used as the control group.
# (§2) Immunohistochemistry Brains were fixed in 10% buffered formalin (Stephens Scientific, Riverdale, N.J.). The tissues were embedded in paraffin and sectioned at 4 μm. Sections were then stained for various cytokines and cell markers as described below. For single-label immunohistochemistry, sections were incubated with either anti-iNOS antibody (1:100, rabbit polyclonal, Calbiochem, LaJolla, Calif.) or anti-TNF-α antibody (1:100, rabbit polyclonal, Genzyme, Cambridge, Mass.) or anti-IFN-γ antibody (1:200, rabbit polyclonal, Biosource International, Camarillo, Calif.) essentially as described for other antibodies (Hooper et al., 1997). The tissue sections were further incubated with FITC conjugated anti-rabbit IgG (1:100, Sigma, St. Louis, Mo.), mounted with mounting media (EMS) and analyzed by immunofluorescence microscopy (Olympus) using Adobe photoshop software. For immunofluorescent double-labeling, sections were incubated first with anti-iNOS (1:100) followed by macrophage marker ED1 (1:100, mouse monoclonal, Biosource International, Camarillo, Calif.). Anti-iNOS was visualized using TRITC conjugated anti-rabbit IgG—(1:100, Sigma, St. Louis, Mo.) and ED1 using FITC conjugated anti-mouse IgG (1:100, Sigma, St. Louis, Mo.). […]
# iNOS [11] = assay: Immunofluorescence of iNOS in brain sections of EAE rats; type: in vivo, Lewis rats
# Experimental: as §1, §2
# IFN-γ = assay: Immunohistochemistry of IFN-γ in brain sections of EAE rats; type: in vivo, Lewis rats
# Experimental: as §1, §2
# [12] = Astrocytes, 10 μM lovastatin or 5 mM NaPA 8 h, then LPS 1.0 μg/ml, 24 h
# [13] = Macrophages, 10 μM lovastatin or 5 mM NaPA 8 h, then LPS 1.0 μg/ml, 24 h
# [14] = Microglia, 10 μM lovastatin or 5 mM NaPA 8 h, then LPS 1.0 μg/ml, 24 h
# [15] = daily i.p. treatment from day 1
structure (smiles),measurement,setting,value
CC[C@H](C)C(=O)O[C@H]1C[C@@H](C)C=C2C=C[C@H](C)[C@H](CC[C@@H]3C[C@@H](O)CC(=O)O3)[C@H]21 [Lovastatin],Production of IL-1β,[1]; [12],0.8 ± 0.1 ng/24 h/mg protein
same,Production of IL-6,[2]; [13],8.3 ± 0.6 ng/24 h/mg protein
same,Production of TNF-α,[3]; [13],1.2 ± 0.1 ng/24 h/mg protein
same,Production of IL-1β,[4]; [13],2.3 ± 0.3 ng/24 h/mg protein
same,Lignoceric acid β-oxidation,"[5]; 72 h, Lovastatin 5 μM, Mevastatin 5 μM, NaPA 5 mM, Control 570.2 ± 52.3",945.7 ± 105.6 pmol/h/mg protein
same,C24:0/C22:0,[6],1.25 ± 0.15 and 1.28 ± 0.21 and 1.31 ± 0.18 and 1.26 ± 0.16 and 1.29 ± 0.02
same,Production of IL-6,[7]; [14],7.8 ± 1.1 ng/24 h/mg protein
same,LPS-mediated induction of iNOS protein and mRNA,iNOS [8]; LPS 1.0 μg/ml,significantly inhibited the LPS-mediated induction of iNOS protein and mRNA
same,Production of NO,[9]; [14],5.9 ± 0.4 nmol/24 h/mg protein
same,Production of IL-6,[10]; [12],6.9 ± 0.9 ng/24 h/mg protein
"CC(=O)N[C@@H](CS)C(=O)O [NAC, N-acetyl cysteine]",expression of TNF-α in EAE brain,TNF-α; [15],blocked the induction of TNF-α
same,expression of iNOS in EAE brain,iNOS [11]; [15],blocked the ability of MBP to induce the expression of iNOS
same,expression of IFN-γ in EAE brain,IFN-γ; [15],blocked the induction of IFN-γ
"O=C([O-])Cc1ccccc1.[Na+] [NaPA, sodium salt of phenylacetic acid]",expression of TNF-α in EAE brain,"TNF-α; rat, in vivo, ip",blocked the induction of TNF-α
same,expression of iNOS in EAE brain,"iNOS [11]; rat, in vivo, ip",blocked the ability of MBP to induce the expression of iNOS
same,Production of IL-1β,[1],1.1 ± 0.2 ng/24 h/mg protein
same,expression of IFN-γ in EAE brain,"IFN-γ; rat, in vivo, ip",blocked the induction of IFN-γ
same,Production of IL-6,[2],10.2 ± 1.4 ng/24 h/mg protein
same,Production of TNF-α,[3],1.7 ± 0.2 ng/24 h/mg protein
same,Production of IL-1β,[4],3.1 ± 0.4 ng/24 h/mg protein and 3.1 ± .4 ng/24 h/mg protein
same,Lignoceric acid β-oxidation,[5],826.2 ± 87.2 pmol/h/mg protein
same,ratios of C26:0/C22:0 and C24:0/C22:0 / level of VLCFA,[6],almost to the normal level after 15 days of treatment
same,Production of IL-6,[7],9.3 ± 1.2 ng/24 h/mg protein
same,LPS-mediated induction of iNOS protein and mRNA,iNOS [8],significantly inhibited the LPS-mediated induction of iNOS protein and mRNA
same,Production of NO,[9],6.9 ± 0.9 nmol/24 h/mg protein
same,Production of IL-6,[10],7.6 ± 0.8 ng/24 h/mg protein

# Reference: patent US8507219B2, “Method of treating inflammation with statins” (MUSC Foundation for Research Development, priority 1997, dated 2013)
